Experimental data: the supplement of paper PMC10307832

Columns and labels:
Experiment in all cases: relative viability (nuclei count vs DMSO), 5 days (fraction); higher = more cells survive
[1] = compound: CCN(CCO)CCCC(C)Nc1ccnc2cc(Cl)ccc12 [Hydroxychloroquine] + NC(=O)Nc1cc(-c2cccc(F)c2)sc1C(=O)N[C@H]1CCCNC1 [AZD7762] (partner 0.2 µM)
Summary of the method: (§1)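 Relative viability divides the nuclei count in treated wells by that in vehicle wells. Lung cancer cell lines were seeded in 1536-well plates, dosed by pin tool the next day, and fixed and stained after 5 days in one step with final 0.05% Triton X-100, 1% formaldehyde and 1 ug/ml Hoechst. Dosing was a single drug or a fixed anchor-drug dose plus five library-drug doses (not always all listed) in √10 steps, and values are medians of duplicate plates imaged at 4×.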

[2] = compound: CCN(CCO)CCCC(C)Nc1ccnc2cc(Cl)ccc12 [Hydroxychloroquine] + Cc1nc(NC(=O)N2CCC[C@H]2C(N)=O)sc1-c1ccnc(C(C)(C)C(F)(F)F)c1 [Alpelisib] (partner 2 µM)
Summary of the method: as §1

[3] = compound: CCN(CCO)CCCC(C)Nc1ccnc2cc(Cl)ccc12 [Hydroxychloroquine] + N=C(N)NC(=N)NCCc1ccccc1 [Phenformin] (partner 250 µM)
Summary of the method: as §1

[4] = compound: CCN(CCO)CCCC(C)Nc1ccnc2cc(Cl)ccc12 [Hydroxychloroquine] + CS(=O)(=O)N1CCN(Cc2cc3nc(-c4cccc5[nH]ncc45)nc(N4CCOCC4)c3s2)CC1 [Pictilisib] (partner 1 µM)
Summary of the method: as §1

Cell Line | relative viability ([1]; first compound 0.5 µM) | relative viability ([1]; first compound 1.581 µM) | relative viability ([1]; first compound 5 µM) | relative viability ([1]; first compound 15.81 µM) | relative viability ([1]; first compound 50 µM) | relative viability ([2]; first compound 0.5 µM) | relative viability ([2]; first compound 1.581 µM) | relative viability ([2]; first compound 5 µM) | relative viability ([2]; first compound 15.81 µM) | relative viability ([2]; first compound 50 µM) | relative viability ([3]; first compound 0.5 µM) | relative viability ([3]; first compound 1.581 µM) | relative viability ([3]; first compound 5 µM) | relative viability ([3]; first compound 15.81 µM) | relative viability ([3]; first compound 50 µM) | relative viability ([4]; first compound 0.5 µM) | relative viability ([4]; first compound 1.581 µM) | relative viability ([4]; first compound 5 µM) | relative viability ([4]; first compound 15.81 µM) | relative viability ([4]; first compound 50 µM)
HCC-366 | 0.228 | 0.381 | 0.289 | 0.235 | 0.384 | 0.569 | 0.375 | 0.368 | 0.434 | 0.482 | 0.564 | 0.558 | 0.597 | 0.605 | 0.657 | 0.202 | 0.13 | 0.198 | 0.18 | 0.148
HCC-827 | 0.207 | 0.227 | 0.237 | 0.264 | 0.22 | 1.05 | 1.03 | 0.939 | 1.03 | 0.979 | 0.447 | 0.339 | 0.359 | 0.395 | 0.414 | 1.01 | 0.899 | 0.755 | 0.98 | 1.06
HOP-62 | 0.448 | 0.968 | 0.661 | 0.626 | 0.732 | 0.997 | 1.18 | 1.15 | 1 | 1.04 | 0.557 | 0.603 | 0.762 | 0.686 | 0.755 | 0.682 | 0.643 | 0.722 | 0.854 | 0.515
LC-2-ad | 0.898 | 0.822 | 0.842 | 0.832 | 0.85 | 0.873 | 0.851 | 0.904 | 0.873 | 0.93 | 0.587 | 0.521 | 0.573 | 0.632 | 0.54 | 0.321 | 0.395 | 0.463 | 0.546 | 0.436
LCLC-97TM1 | 0.373 | 0.499 | 0.245 | 0.119 | 0.363 | 0.286 | 0.223 | 0.262 | 0.244 | 0.286 | 0.435 | 0.409 | 0.488 | 0.422 | 0.384 | 0.265 | 0.183 | 0.277 | 0.182 | 0.131
LCLC-103H | 0.855 | 0.672 | 0.76 | 0.743 | 0.827 | 1.02 | 0.907 | 0.965 | 0.888 | 0.953 | 0.347 | 0.33 | 0.341 | 0.335 | 0.346 | 0.666 | 0.612 | 0.567 | 0.542 | 0.67
LK-2 | 0.424 | 0.334 | 0.447 | 0.411 | 0.312 | 1.02 | – | 1.26 | 1.27 | 1.24 | 0.37 | 0.314 | – | 0.33 | 0.574 | 0.607 | – | 0.58 | 0.62 | 0.558
LOU-NH91 | 0.762 | 0.646 | 0.776 | 0.744 | 0.828 | 0.697 | 0.617 | 0.741 | 0.745 | 0.758 | 0.704 | 0.562 | 0.679 | 0.732 | 0.466 | 0.531 | 0.488 | 0.567 | 0.509 | 0.488
LU99A | 0.427 | 0.367 | 0.533 | 0.393 | 0.317 | 0.481 | 0.364 | 0.534 | 0.498 | 0.619 | 0.765 | 0.735 | 0.873 | 0.751 | 0.799 | 0.367 | 0.288 | 0.337 | 0.28 | 0.362
LXF-289 | 1.01 | 1.08 | 1.05 | 1.06 | 1.17 | 1 | 1 | 1.06 | 1.03 | 1.11 | 0.533 | 0.513 | 0.517 | 0.505 | 0.495 | 0.765 | 0.819 | 0.797 | 0.736 | 0.769
NCI-H23 | 0.263 | 0.355 | 0.21 | 0.271 | 0.248 | 0.863 | 0.725 | 0.701 | 0.609 | 0.57 | 0.803 | 0.76 | 0.806 | 0.797 | 0.829 | 0.552 | 0.409 | 0.384 | 0.385 | 0.449
NCI-H322M | 0.681 | 0.433 | 0.447 | 0.487 | 0.482 | 0.864 | 0.814 | 0.864 | 0.758 | 0.769 | 0.704 | 0.799 | 0.786 | 0.743 | 0.744 | 0.533 | 0.438 | 0.475 | 0.515 | 0.524
NCI-H358 | 0.498 | 0.566 | 0.534 | 0.436 | 0.442 | 0.832 | 0.698 | 0.775 | 0.91 | 0.8 | 0.345 | 0.284 | 0.314 | 0.32 | 0.323 | 0.32 | 0.274 | 0.281 | 0.327 | 0.328
NCI-H441 | 1.16 | 1.47 | 1.25 | 1.5 | 1.11 | – | 0.627 | 0.816 | 0.746 | 0.625 | 0.922 | 0.726 | 0.815 | 0.94 | 0.944 | 0.488 | 0.532 | 0.535 | 0.38 | 0.428
NCI-H460 | 0.727 | 0.645 | 0.63 | 0.749 | 0.615 | 0.609 | 0.428 | 0.439 | 0.421 | 0.52 | 0.506 | 0.533 | 0.577 | 0.518 | 0.635 | 0.37 | 0.266 | 0.366 | 0.406 | 0.352
NCI-H596 | 0.924 | 0.902 | 1.14 | 1.11 | 1.05 | 0.461 | 0.463 | 0.546 | 0.606 | 0.492 | 0.69 | 0.66 | 0.784 | 0.835 | 0.908 | 0.386 | 0.406 | 0.32 | 0.367 | 0.399
NCI-H647 | 0.542 | 0.455 | 0.423 | 0.252 | 0.373 | 1.12 | 1.06 | 1.1 | 1.02 | 1.13 | 0.503 | 0.556 | 0.441 | 0.63 | 0.661 | 0.514 | 0.323 | 0.335 | 0.357 | 0.476
NCI-H650 | 1.07 | 1.05 | 0.924 | 0.956 | 0.986 | 1.08 | 1.17 | – | 1.1 | 1.17 | 0.479 | 0.438 | 0.413 | 0.455 | 0.473 | 0.867 | 0.758 | – | 1.01 | 0.827
NCI-H727 | 0.845 | 0.698 | 0.655 | 0.599 | 0.523 | 0.454 | 0.58 | 0.589 | 0.512 | 0.526 | 0.514 | 0.424 | 0.407 | 0.618 | 0.532 | 0.389 | 0.339 | 0.444 | 0.325 | 0.371
NCI-H838 | 0.963 | 0.943 | 0.916 | 0.968 | 1.03 | 1.04 | 0.946 | 0.983 | 1.04 | 1.08 | 0.636 | 0.561 | 0.548 | 0.595 | 0.613 | 0.509 | 0.465 | 0.398 | 0.465 | 0.53
NCI-H1355 | 0.747 | 0.795 | 0.679 | 0.72 | 0.81 | 0.81 | 0.744 | 0.837 | 0.833 | 0.86 | 0.431 | 0.408 | 0.457 | 0.442 | 0.425 | 0.475 | 0.362 | 0.461 | 0.485 | 0.471
NCI-H1395 | 0.393 | 0.465 | 0.419 | 0.375 | 0.426 | 0.979 | 0.899 | 0.975 | 1.09 | 0.954 | 0.465 | 0.445 | 0.451 | 0.456 | 0.43 | 0.605 | 0.836 | 0.627 | 0.564 | 0.569
NCI-H1437 | 1.13 | 1.15 | 1.08 | 1.14 | 1.14 | 0.909 | 0.926 | 1.05 | 1 | 1.05 | 0.304 | 0.316 | 0.31 | 0.297 | 0.31 | 0.341 | 0.49 | 0.412 | 0.421 | 0.439
NCI-H1651 | 0.501 | 0.585 | 0.47 | 0.451 | 0.457 | 0.963 | 0.926 | 1.05 | 1.04 | 0.989 | 0.358 | 0.346 | 0.297 | 0.356 | 0.325 | 0.6 | 0.663 | 0.561 | 0.574 | 0.592
NCI-H1666 | 0.891 | 0.791 | 0.806 | 0.774 | 0.72 | 0.99 | 0.996 | 0.873 | 0.882 | 0.668 | 0.601 | 0.551 | 0.586 | 0.562 | 0.554 | 0.519 | 0.409 | 0.377 | 0.477 | 0.402
NCI-H1734 | 0.62 | 0.562 | 0.649 | 0.644 | 0.622 | 0.674 | 0.696 | 0.362 | 0.781 | 0.668 | 0.361 | 0.42 | 0.361 | 0.358 | 0.405 | 0.507 | 0.294 | 0.462 | 0.491 | 0.47
NCI-H1755 | 0.616 | 0.447 | 0.396 | 0.445 | 0.514 | 0.925 | 0.877 | 0.908 | 0.956 | 0.911 | 0.628 | 0.529 | 0.63 | 0.636 | 0.572 | 0.431 | 0.273 | 0.374 | 0.425 | 0.379
